{
  "source": "patent US20090123420A1",
  "about": "“Regulation of T Cell-Mediated Immunity by D Isomers of Inhibitors of Indoleamine-2,3-Dioxygenase” (Medical College of Georgia Research Institute, Inc, priority 2003, published 2009)",
  "key": {"[1]": {"assay": "Comparative plasma pharmacokinetics of the stereo-isomers of 1-MT", "type": "in vivo, mouse", "procedure": "Studies were conducted in conventional mice after IV, PO and SC doses of 50 mg/kg, and IP doses of 25 mg/kg, 50 mg/kg, and 100 mg/kg."}, "IDO [2]": {"tested_on": "IDO", "assay": "Recall MLR of primed recipient LN cells with 1MT added to the MLR", "type": "cell-based, mouse", "details": "responders from recipients of TDLN DCs"}, "P815 with IDO": {"tested_on": "P815 with IDO", "details": "concomitant administration; cited from earlier work"}, "[3]": {"tested_on": "Lewis Lung carcinoma (LLC)", "details": "mouse, in vivo; cited from earlier work"}, "B16F10 melanomas": {"tested_on": "B16F10 melanomas", "assay": "Established B16F10 melanoma model, 1MT with radiation or cyclophosphamide", "type": "in vivo, mouse", "details": "for effect on tumor growth, 1MT alone: established tumor, treatment from day 7, SQ pellets", "procedure": "FIGS. 11A-11D. Administration of 1-MT enhances immune-mediated host anti-tumor effect when administered with radiation or cyclophosphamide. Mice were injected subcutaneously (SQ) with 4×10^4 B16F10 cells. […] Control mice received vehicle pellets without drug.\nMouse tumor models. C57BL/6 mice (Jackson, Bar Harbor, Me.) were implanted with tumors in the anteriomedial thigh, using either 4×10^4 B16F10 (ATCC, Bethesda, Md.) or 1×10^6 B78H1•GM-CSF. B78H1•GM-CSF cells recruit large numbers of APCs (Dranoff et al., Proc. Natl. Acad. Sci. USA, 1993; 90:3539) and were originally designed as a vaccine strategy. GMCSF-transfected tumors are immunogenic if lethally irradiated prior to injection (Borrello et al., Hum. Gene Ther., 1999; 10:1983), but live tumors grow progressively and create systemic tolerance to tumor antigens (Bronte et al., J. Immunol., 1999; 162:5728). Thus, B78H1•GM-CSF represented an excellent model for our studies, since it recruited many DCs but nevertheless […]. Tumors were 10-12 days after implantation, well prior to the stage of large, metastatic tumors (day 21) in which the hosts began to show alteration in spleen and non-tumor-draining LNs.\nNot unexpected, given that the tumor had already been allowed to create tolerance in the host."}, "IDO [4]": {"molecular_target": "IDO (Mus musculus, UniProt P28776)", "sequence (P28776 whole entry)": "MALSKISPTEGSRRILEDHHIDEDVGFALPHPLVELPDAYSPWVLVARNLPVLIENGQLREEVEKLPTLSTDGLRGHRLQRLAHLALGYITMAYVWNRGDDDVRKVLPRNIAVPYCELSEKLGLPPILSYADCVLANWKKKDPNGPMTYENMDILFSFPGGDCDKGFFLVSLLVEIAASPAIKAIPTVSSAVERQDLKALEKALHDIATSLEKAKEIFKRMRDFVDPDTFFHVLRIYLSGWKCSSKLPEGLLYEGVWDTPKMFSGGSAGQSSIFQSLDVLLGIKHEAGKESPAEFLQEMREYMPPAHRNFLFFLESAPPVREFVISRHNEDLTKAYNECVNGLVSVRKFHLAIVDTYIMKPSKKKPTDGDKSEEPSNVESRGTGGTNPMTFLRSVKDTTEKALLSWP", "assay": "MLR with sorted tumor-draining lymph node (TDLN) cells as stimulators and BM3 responder T cells", "details": "10x", "quoted_text": "T cell activation in MLR. BM3 responder T cells were prepared from spleen by nylon-wool enrichment. Stimulators (sorted DCs or unfractionated TDLN) were mixed with 1×10^5 BM3 responder cells in 200 ul IMDM at the ratios shown in each figure. After 3 days, proliferation was measured by 4-hour thymidine incorporation assay.\nMLRs were thus “two-way” reactions. However, the small number of sorted DCs used as stimulators contributed negligible proliferation compared to the large population of TCR-transgenic responder cells. Since the relevant readout was dominant suppression, the two-way MLR design presented no problem in interpretation.\nPooled draining LN cells (4 nodes) were stained and fractionated by 4-color MoFlo cell sorting for the two populations shown in the schematic of FIG. 5B. All other cells were collected in a third fraction. Each fraction was then used as stimulators in MLRs, using 50,000 BM3 T cells as responders. The number of stimulators used in each MLR was adjusted to be the same as would have been present in 50,000 cells of the original LN preparation, based on the measured percentage of each sorted fraction. Thus, 500 cells of the sorted B220^+ CD11c^+ fraction were added per well, and 1500 cells of the CD25^+ CD4^+ fraction, while 48,000 cells of the “all other” fraction were used."}, "IDO [5]": {"molecular_target": "IDO (Homo sapiens, UniProt P14902)", "sequence (P14902 whole entry)": "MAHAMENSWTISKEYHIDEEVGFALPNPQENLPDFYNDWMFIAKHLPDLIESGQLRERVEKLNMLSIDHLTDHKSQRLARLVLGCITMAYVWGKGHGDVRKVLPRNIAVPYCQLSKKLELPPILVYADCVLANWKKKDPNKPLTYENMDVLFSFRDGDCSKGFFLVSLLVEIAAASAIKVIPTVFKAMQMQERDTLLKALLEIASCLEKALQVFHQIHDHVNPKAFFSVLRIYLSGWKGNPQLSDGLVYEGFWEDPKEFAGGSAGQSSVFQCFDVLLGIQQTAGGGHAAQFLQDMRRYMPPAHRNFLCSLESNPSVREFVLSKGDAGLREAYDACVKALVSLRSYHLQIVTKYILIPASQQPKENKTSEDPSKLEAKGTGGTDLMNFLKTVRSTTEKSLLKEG", "assay": "Allogeneic mixed-leukocyte reaction (MLR) with IDO-expressing human monocyte-derived DCs, T cell proliferation by thymidine incorporation", "details": "250 uM in culture medium", "quoted_text": "Replicate MLRs received each compound at the concentrations shown. Bars represent T cell proliferation at the end of the 5-day activation period.\nAfter 5 days, proliferation was measured by 4 hour thymidine incorporation assay. “V”-bottom culture wells (Nunc) were used in MLR assays to maximize cell-cell contact.\nDCs were used as stimulators in allogeneic mixed-leukocyte reactions (MLRs), with allogeneic lymphocytes as responder cells."}, "[6]": {"assay": "Pilot tissue biodistribution of D and L isomers after DL racemic mixture", "type": "in vivo, mouse", "details": "DL racemic mixture 10 mg/day SQ pellets, 72 hour infusion", "text": "The results noted with spleen are particularly relevant because it is a lymphoid organ, and thus likely to be similar to tumor-draining lymph nodes."}, "[7]": {"molecular_target": "rabbit polyclonal anti-human IDO antibody (raised against the KLH-conjugated peptide of SEQ ID NO:1, affinity purified)", "assay": "flow cytometry of IFNγ-activated monocyte-derived macrophages; anti-IDO antibody pre-adsorbed with the immunizing peptide, which competes with IDO"}},
  "note": "Entries after “also recorded” stand apart in the source; their conditions may differ. No end group written: not given here.",
  "data": [
    {"molecule": "Cn1cc(C[C@H](N)C(=O)O)c2ccccc21", "note": "[L 1-MT, reference compound]", "values": [
      {"measurement": "oral bioavailability", "setting": "[1]; PO", "result": 105, "unit": "%"}
    ]},
    {"molecule": "Cn1cc(C[C@H](N)C(=O)O)c2ccccc21", "note": "[1MT, 1-methyl-tryptophan]", "values": [
      {"measurement": "suppression in recall MLRs", "setting": "IDO [2]", "result": "no effect; also recorded: not restored"},
      {"measurement": "IDO-mediated prevention of tumor rejection by pre-immunized hosts", "setting": "P815 with IDO", "result": "substantially reversed"},
      {"measurement": "tumor outgrowth", "setting": "[3]", "result": "significantly delayed tumor outgrowth"},
      {"measurement": "effect of 1MT over cyclophosphamide alone in immunodeficient hosts", "setting": "B16F10 melanomas; RAG1-knockout hosts", "result": "no enhancing effect"},
      {"measurement": "effect on tumor growth, 1MT alone", "setting": "B16F10 melanomas", "result": "no effect"}
    ]},
    {"molecule": "N[C@@H](Cc1c[nH]c2ccccc12)C(=O)O", "note": "[L-tryptophan]", "values": [
      {"measurement": "suppression by pDCs with excess L-tryptophan", "setting": "IDO [4]; 250 uM, IDO-sufficient host", "result": "abrogated; also recorded: abrogates suppression"},
      {"measurement": "effect of excess L-tryptophan with IDO-knockout pDCs", "setting": "IDO [4]; TDLN cells from IDO-knockout mice", "result": "no effect"},
      {"measurement": "DC-mediated inhibition of T cell proliferation with supra-physiologic tryptophan", "setting": "IDO [5]", "result": "completely reversed"}
    ]},
    {"molecule": "Cn1cc(CC(N)C(=O)O)c2ccccc21", "note": "(racemic) [DL racemic form of 1MT, reference compound]", "values": [
      {"measurement": "tumor growth, 1MT with cyclophosphamide", "setting": "B16F10 melanomas; 20 mg per mouse per day DL racemic, cyclophosphamide 150 mg/kg x 1 dose", "result": "significantly reduce tumor growth"},
      {"measurement": "tumor growth, 1MT with radiation", "setting": "B16F10 melanomas; 20 mg per mouse per day DL racemic, total-body radiation 500 cGy single dose", "result": "significantly reduce tumor growth"},
      {"measurement": "effect on tumor growth, 1MT alone", "setting": "B16F10 melanomas", "result": "no effect"}
    ]},
    {"molecule": "Cn1cc(C[C@@H](N)C(=O)O)c2ccccc21", "note": "[1-methyl-D-tryptophan]", "values": [
      {"measurement": "apparent volume of distribution", "setting": "[1]; D versus L isomer", "result": "relatively greater"},
      {"measurement": "bioavailability", "setting": "[1]; mouse, plasma, po, 50 mg/kg", "result": 64, "unit": "%"},
      {"measurement": "anti-tumor effect of combination with radiation", "setting": "B16F10 melanomas; replicate radiation studies", "result": "enhanced effect over radiation alone"},
      {"measurement": "accumulation in liver, D versus L isomer", "setting": "[6]", "result": "at least equal, and possibly preferential, accumulation"},
      {"measurement": "distribution into muscle and spleen, D versus L isomer", "setting": "[6]", "result": "equivalent distribution"},
      {"measurement": "levels in plasma and in brain, D versus L isomer", "setting": "[6]", "result": "lower levels"}
    ]},
    {"molecule": "LIESGQLRERVEKLNMLC (also: conjugated to keyhole limpet carrier protein for immunisation)", "note": "[immunizing peptide … (SEQ ID NO:1), based on human IDO]", "values": [
      {"measurement": "reduction of flow cytometry signal", "setting": "[7]", "result": "> 95", "unit": "%"}
    ]}
  ]
}
